Measurements from patent US20020052377A1, “Method for treating angina” (priority 2000, published 2002).
Like-named read-outs stand apart in the source and are kept apart here.

Experiments:
[1] = MARISA ranolazine plasma concentration; format: in vivo; details: human, oral; for concentration at 4 h: read-out: Ranolazine Plasma Concentration, Peak, mean (SD); for concentration at 12 h: read-out: Ranolazine Plasma Concentration, Trough, mean (SD)
Procedure: (§1) Methods: Patients withdrawn from other anti-anginal drugs with reproducible angina-limited exercise duration and ≧1 mm ST depression were randomized to Ran (500 mg bid, 1000 mg bit and 1500 mg bid) and matching placebo (Pbo) in a double-blind, four-period, Latin square crossover design. Exercise testing with a modified Bruce protocol was performed at both trough (12 hr after dosing) and peak (4 hr after dosing). Results: 49 centers in the USA, Czech Republic, Poland and Canada randomized 191 patients. 168 completed all 4 double-blind treatment periods; 7 more completed 3 of 4 periods.
Results: Ran improved exercise duration times in comparison to the placebo.

[2] = test system: patients with stable angina; test: MARISA exercise testing (modified Bruce protocol), sustained release ranolazine; format: in vivo, human
Procedure: as §1, with “is the first study of sustained release ranolazine (SR) in stable angina. Methods:” for “Methods:”

[3] = Peak and trough ranolazine plasma concentrations, IR regimens (Example 3); format: in vivo; details: human, oral
Procedure: In this Example, the safety and anti-ischemic effects of high plasma ranolazine levels in a large group of angina patients was evaluated and the duration of any effects during steady-state dosing with bid and tid regimens was assessed. In this Example, patients with chronic stable angina pectoris who were responsive to conventional antianginal drugs were treated with 3 ranolazine.2HCl dosing regimens: 267 mg tid, 400 mg bid and 400 mg tid IR Formulations of Example 1. Exercise testing parameters and ranolazine free base concentrations were determined at peak and trough plasma levels.
After each 1 week period, patients returned to the exercise laboratory in the morning, at least 1 hour after a light breakfast, for an ETT. This was designated the trough ETT; the trough ETTs were performed at the same time of day for each patient. After completing the trough ETT, the patient received the next scheduled blinded medication dose from the blister pack used that week. Another ETT was performed 1 hour after the administered dose. This was designated the peak ETT. Blood samples were obtained at trough (approximately 8 hours after dosing) and at peak (1 hour after dosing). Other standard laboratory tests were monitored regularly throughout the study.

- concentration at 4 h ([1]; 500 mg BID): 1.12 µg/mL
- concentration at 12 h ([1]; 500 mg BID): 0.846 µg/mL
- concentration at 4 h ([1]; 1000 mg BID): 2.46 µg/mL
- concentration at 12 h ([1]; 1000 mg BID): 1.95 µg/mL
- concentration at 4 h ([1]; 1500 mg BID): 3.94 µg/mL
- concentration at 12 h ([1]; 1500 mg BID): 3.27 µg/mL
- concentration at 1 h ([3]; female, 267 mg, Females, IR 267 mg tid, read-out: Ranolazine Plasma Concentration, Peak, mean (SD)): 1.59 µg/mL
- concentration at 8 h ([3]; female, 267 mg, Females, IR 267 mg tid, read-out: Ranolazine Plasma Concentration, Trough, mean (SD)): 0.316 µg/mL
- concentration at 1 h ([3]; female, 400 mg, Females, IR 400 mg bid, read-out: Ranolazine Plasma Concentration, Peak, mean (SD)): 2.17 µg/mL
- concentration at 8 h ([3]; female, 400 mg, Females, IR 400 mg bid, read-out: Ranolazine Plasma Concentration, Trough, mean (SD)): 0.235 µg/mL
- concentration at 1 h ([3]; female, 400 mg, Females, IR 400 mg tid, read-out: Ranolazine Plasma Concentration, Peak, mean (SD)): 2.65 µg/mL
- concentration at 8 h ([3]; female, 400 mg, Females, IR 400 mg tid, read-out: Ranolazine Plasma Concentration, Trough, mean (SD)): 0.505 µg/mL
- concentration at 1 h ([3]; 267 mg, All Patients, IR 267 mg tid, read-out: Ranolazine Plasma Concentration, Peak, mean (SD)): 1.35 µg/mL
- concentration at 8 h ([3]; 267 mg, All Patients, IR 267 mg tid, read-out: Ranolazine Plasma Concentration, Trough, mean (SD)): 0.316 µg/mL
- concentration at 1 h ([3]; 400 mg, All Patients, IR 400 mg bid, read-out: Ranolazine Plasma Concentration, Peak, mean (SD)): 1.88 µg/mL
- concentration at 8 h ([3]; 400 mg, All Patients, IR 400 mg bid, read-out: Ranolazine Plasma Concentration, Trough, mean (SD)): 0.235 µg/mL
- concentration at 1 h ([3]; 400 mg, All Patients, IR 400 mg tid, read-out: Ranolazine Plasma Concentration, Peak, mean (SD)): 2.13 µg/mL
- concentration at 8 h ([3]; 400 mg, All Patients, IR 400 mg tid, read-out: Ranolazine Plasma Concentration, Trough, mean (SD)): 0.514 µg/mL
- concentration at 8 h ([3]; across the 3 IR dosing regimens, read-out: Mean trough ranolazine plasma concentrations): 0.235 to 0.514 µg/mL
- concentration at 1 h ([3]; across the 3 IR dosing regimens, read-out: plasma mean peak concentrations, ranolazine free base): 1.35 to 2.13 µg/mL
- concentration at 1 h ([3]; male, 267 mg, Males, IR 267 mg tid, read-out: Ranolazine Plasma Concentration, Peak, mean (SD)): 1.26 µg/mL
- concentration at 8 h ([3]; male, 267 mg, Males, IR 267 mg tid, read-out: Ranolazine Plasma Concentration, Trough, mean (SD)): 0.316 µg/mL
- concentration at 1 h ([3]; male, 400 mg, Males, IR 400 mg bid, read-out: Ranolazine Plasma Concentration, Peak, mean (SD)): 1.76 µg/mL
- concentration at 8 h ([3]; male, 400 mg, Males, IR 400 mg bid, read-out: Ranolazine Plasma Concentration, Trough, mean (SD)): 0.235 µg/mL
- concentration at 1 h ([3]; male, 400 mg, Males, IR 400 mg tid, read-out: Ranolazine Plasma Concentration, Peak, mean (SD)): 1.92 µg/mL
- concentration at 8 h ([3]; male, 400 mg, Males, IR 400 mg tid, read-out: Ranolazine Plasma Concentration, Trough, mean (SD)): 0.518 µg/mL
Structure (SMILES): COc1ccccc1OCC(O)CN1CCN(CC(=O)Nc2c(C)cccc2C)CC1 (racemic) [Ranolazine, (±)-N-(2,6-dimethylphenyl)-4-[2-hydroxy-3-(2-methoxyphenoxy)propyl]-1-piperazine-acetamide]
- Time to 1 mm ST Depression ([2]; SR 500 mg bid, peak): 479 s
- Time to Angina ([2]; SR 500 mg bid, peak): 452 s
- Exercise Duration ([2]; SR 500 mg bid, peak (4 hr after dosing)): 532 s
- Time to 1 mm ST Depression ([2]; SR 500 mg bid, trough): 470 s
- Time to Angina ([2]; SR 500 mg bid, trough): 437 s
- Exercise Duration ([2]; SR 500 mg bid, trough (12 hr after dosing)): 533 s
- Time to 1 mm ST Depression ([2]; SR 1000 mg bid, peak): 502 s
- Time to Angina ([2]; SR 1000 mg bid, peak): 474 s
- Exercise Duration ([2]; SR 1000 mg bid, peak (4 hr after dosing)): 555 s
- Time to 1 mm ST Depression ([2]; SR 1000 mg bid, trough): 491 s
- Time to Angina ([2]; SR 1000 mg bid, trough): 457 s
- Exercise Duration ([2]; SR 1000 mg bid, trough (12 hr after dosing)): 545 s
- Time to 1 mm ST Depression ([2]; SR 1500 mg bid, peak): 508 s
- Time to Angina ([2]; SR 1500 mg bid, peak): 487 s
- Exercise Duration ([2]; SR 1500 mg bid, peak (4 hr after dosing)): 561 s
- Time to 1 mm ST Depression ([2]; SR 1500 mg bid, trough): 514 s
- Time to Angina ([2]; SR 1500 mg bid, trough): 472 s
- Exercise Duration ([2]; SR 1500 mg bid, trough (12 hr after dosing)): 559 s
